Patent publication US20210024542A1 (Torcept Therapeutics, Inc., priority 2018, published 2021)

Key:
Assay type in all cases: cell-based, human
A101D = test: OncoPanel cell proliferation assay, A101D
Experimental: (§1) Cells were grown in RPMI 1640, 10% FBS, 2 mM L-alanyl-L-glutamine, 1 mM Na pyruvate, or a special medium. Cells were seeded into 384-well plates and incubated in a humidified atmosphere of 5% CO2 at 37° C. Compounds were added the day following cell seeding. At the same time, a time zero untreated cell plate was generated. After a 3-day incubation period, cells were fixed and stained to allow fluorescence imaging of nuclei. Compounds (1 mM stock solutions) were serially diluted in half-log steps from the highest test concentration ([…]), and assayed over 10 concentrations with a maximum assay concentration of 0.1% DMSO. Automated fluorescence microscopy was carried out using a Molecular Devices ImageXpress Micro XL high-content imager, and images were collected with a 4× objective. 16-bit TIFF images were acquired and analyzed with MetaXpress 5.1.0.41 software.
(§2) Cell proliferation was measured by the fluorescence intensity of an incorporated nuclear dye. The output is referred to as the relative cell count, where the measured nuclear intensity is transformed to percent of control (POC) using the following formula: […]
(§3) Cellular response parameters were calculated using nonlinear regression to a sigmoidal single-site dose response model:
(§4) Where y is a response measured at concentration x, A and B are the lower and upper limits of the response, C is the concentration at the response midpoint (EC50), and D is the Hill Slope (Ref. 1).
(§5) EC50 is the test compound concentration at the curve inflection point or half the effective response (parameter C of the fitted curve solution). GI50 is the concentration needed to reduce the observed growth by half (midway between the curve maximum and the time zero value). “Cell Count Activity Area” is an estimate of the integrated area above the curve (Barretina, et al. The Cancer Cell Line Encyclopedia enables predictive modelling of anticancer drug sensitivity. Nature 483: 603-607). […] In rare instances, values <0 or >10 may be observed. […] Curve-fitting, calculations, and report generation was performed using a custom data reduction engine and MathIQ based software (AIM).

AGS = test: OncoPanel cell proliferation assay, AGS
Experimental: as §1, §2, §3, §4, §5

CEM-C1 = test: OncoPanel cell proliferation assay, CEM-C1; conditions: for Relative cell count (%) Mean: CEM-C1
Experimental: as §1, §2, §3, §4, §5

CML-T1 = test: OncoPanel cell proliferation assay, CML-T1; conditions: for Relative cell count (%) Mean: CML-T1
Experimental: as §1, §2, §3, §4, §5

CaOV3 = test: OncoPanel cell proliferation assay, CaOV3; conditions: for Relative cell count (%) Mean: CaOV3
Experimental: as §1, §2, §3, §4, §5

DMS114 = test: OncoPanel cell proliferation assay, DMS114; conditions: for Relative cell count (%) Mean: DMS114
Experimental: as §1, with “Cells” for “Cells were grown in RPMI 1640, 10% FBS, 2 mM L-alanyl-L-glutamine, 1 mM Na pyruvate, or a special medium. Cells”
as §2, §3, §4
GI50 is the concentration needed to reduce the observed growth by half (midway between the curve maximum and the time zero value). […] In rare instances, values <0 or >10 may be observed. […] Curve-fitting, calculations, and report generation was performed using a custom data reduction engine and MathIQ based software (AIM).

[1] = Homo sapiens, 72 h, 3-day incubation, read-out: Cell Count EC50
[2] = Homo sapiens, 72 h, 3-day incubation, read-out: Cell Count GI50
[3] = Homo sapiens, 72 h, 3-day incubation, read-out: Cell Count IC50

For `CO[C@H]1C[C@@H]2CC[C@@H](C)[C@@](O)(O2)C(=O)C(=O)N2CCCC[C@H]2C(=O)O[C@H]([C@H](C)C[C@@H]2C[C@@H]3C[C@H]2C[C@H]3O)CC(=O)[C@H](C)/C=C(\C)[C@@H](O)[C@@H](OC)C(=O)[C@H](C)C[C@H](C)/C=C/C=C/C=C/1C` [Formula I, 37R-hydroxynorbornylrapamycin], the “Relative cell count (%) Mean” value (A101D; 1.00E+00 microM) was 50.8%, the “Relative cell count (%) Mean” value (A101D; 1.00E−01 microM) was 57.8% and the “Relative cell count (%) Mean” value (A101D; 1.00E−02 microM) was 54.7%. For the same compound, the “Relative cell count (%) Mean” value (A101D; 1.00E−03 microM) was 66.8%, the “Relative cell count (%) Mean” value (A101D; 1.01E−04 microM) was 90.7% and the “Relative cell count (%) Mean” value (A101D; 3.16E−01 microM) was 52.8%. For the same compound, the “Relative cell count (%) Mean” value (A101D; 3.17E−02 microM) was 58.0%, the “Relative cell count (%) Mean” value (A101D; 3.17E−03 microM) was 61.9% and the “Relative cell count (%) Mean” value (A101D; 3.18E−04 microM) was 78.1%. The “Relative cell count (%) Mean” value (A101D; 3.18E−05 microM) was 95.8%, the EC50 (A101D; [1]) was 0.322 nM and the GI50 (A101D; [2]) was 0.999 nM. The IC50 (A101D; [3]) was greater than 1000 nM, the “Cell Count Activity Area” value (A101D; scale 0-10) was 3.52 and the “Relative cell count (%) Mean” value (AGS; 1.00E+00 microM) was 32.3%. The “Relative cell count (%) Mean” value (AGS; 1.00E−01 microM) was 39.3%, the “Relative cell count (%) Mean” value (AGS; 1.00E−02 microM) was 39.1% and the “Relative cell count (%) Mean” value (AGS; 1.00E−03 microM) was 39.8%. For the same compound, the “Relative cell count (%) Mean” value (AGS; 1.01E−04 microM) was 58.2%, the “Relative cell count (%) Mean” value (AGS; 3.16E−01 microM) was 38.3% and the “Relative cell count (%) Mean” value (AGS; 3.17E−02 microM) was 34.7%. For the same compound, the “Relative cell count (%) Mean” value (AGS; 3.17E−03 microM) was 40.1%, the “Relative cell count (%) Mean” value (AGS; 3.18E−04 microM) was 45.6% and the “Relative cell count (%) Mean” value (AGS; 3.18E−05 microM) was 82.7%. For the same compound, the EC50 (AGS; [1]) was 0.0635 nM, the GI50 (AGS; [2]) was 0.136 nM and the IC50 (AGS; [3]) was 0.186 nM. For the same compound, the “Cell Count Activity Area” value (AGS; scale 0-10) was 5.50, the “Cell Count Activity Area” value (CEM-C1; CEM-C1, scale 0-10) was 3.52 and the “Relative cell count (%) Mean” value (CEM-C1; 1.00E+00 microM) was 47.1%. The “Relative cell count (%) Mean” value (CEM-C1; 1.00E−01 microM) was 53.2%, the “Relative cell count (%) Mean” value (CEM-C1; 1.00E−02 microM) was 58.4% and the “Relative cell count (%) Mean” value (CEM-C1; 1.00E−03 microM) was 68.7%. For the same compound, the “Relative cell count (%) Mean” value (CEM-C1; 1.01E−04 microM) was 90.0%, the “Relative cell count (%) Mean” value (CEM-C1; 3.16E−01 microM) was 48.9% and the “Relative cell count (%) Mean” value (CEM-C1; 3.17E−02 microM) was 53.1%. For the same compound, the “Relative cell count (%) Mean” value (CEM-C1; 3.17E−03 microM) was 62.4%, the “Relative cell count (%) Mean” value (CEM-C1; 3.18E−04 microM) was 72.7% and the “Relative cell count (%) Mean” value (CEM-C1; 3.18E−05 microM) was 94.0%. The EC50 (CEM-C1; Homo sapiens, 72 h, CEM-C1, 3-day incubation, read-out: Cell Count EC50) was 0.5 nM, the GI50 (CEM-C1; Homo sapiens, 72 h, CEM-C1, 3-day incubation, read-out: Cell Count GI50) was 10.2 nM and the IC50 (CEM-C1; Homo sapiens, 72 h, CEM-C1, 3-day incubation, read-out: Cell Count IC50) was 391 nM. The “Cell Count Activity Area” value (CML-T1; CML-T1, scale 0-10) was 4.54, the “Relative cell count (%) Mean” value (CML-T1; 1.00E+00 microM) was 36.5% and the “Relative cell count (%) Mean” value (CML-T1; 1.00E−01 microM) was 42.6%. For the same compound, the “Relative cell count (%) Mean” value (CML-T1; 1.00E−02 microM) was 46.7%, the “Relative cell count (%) Mean” value (CML-T1; 1.00E−03 microM) was 55.6% and the “Relative cell count (%) Mean” value (CML-T1; 1.01E−04 microM) was 83.6%. For the same compound, the “Relative cell count (%) Mean” value (CML-T1; 3.16E−01 microM) was 33.1%, the “Relative cell count (%) Mean” value (CML-T1; 3.17E−02 microM) was 42.3% and the “Relative cell count (%) Mean” value (CML-T1; 3.17E−03 microM) was 49.5%. The “Relative cell count (%) Mean” value (CML-T1; 3.18E−04 microM) was 65.3%, the “Relative cell count (%) Mean” value (CML-T1; 3.18E−05 microM) was 90.6% and the EC50 (CML-T1; Homo sapiens, 72 h, CML-T1, 3-day incubation, read-out: Cell Count EC50) was 0.317 nM. For the same compound, the GI50 (CML-T1; Homo sapiens, 72 h, CML-T1, 3-day incubation, read-out: Cell Count GI50) was 0.998 nM, the IC50 (CML-T1; Homo sapiens, 72 h, CML-T1, 3-day incubation, read-out: Cell Count IC50) was 2.51 nM and the “Cell Count Activity Area” value (CaOV3; CaOV3, scale 0-10) was 2.82. For the same compound, the “Relative cell count (%) Mean” value (CaOV3; 1.00E+00 microM) was 54.4%, the “Relative cell count (%) Mean” value (CaOV3; 1.00E−01 microM) was 58.3% and the “Relative cell count (%) Mean” value (CaOV3; 1.00E−02 microM) was 64.8%. For the same compound, the “Relative cell count (%) Mean” value (CaOV3; 1.00E−03 microM) was 75.3%, the “Relative cell count (%) Mean” value (CaOV3; 1.01E−04 microM) was 91.0% and the “Relative cell count (%) Mean” value (CaOV3; 3.16E−01 microM) was 57.1%. For the same compound, the “Relative cell count (%) Mean” value (CaOV3; 3.17E−02 microM) was 59.5%, the “Relative cell count (%) Mean” value (CaOV3; 3.17E−03 microM) was 68.5% and the “Relative cell count (%) Mean” value (CaOV3; 3.18E−04 microM) was 85.0%. The “Relative cell count (%) Mean” value (CaOV3; 3.18E−05 microM) was 92.8%, the EC50 (CaOV3; Homo sapiens, Caov-3, 72 h, CaOV3, 3-day incubation, read-out: Cell Count EC50) was 0.976 nM and the GI50 (CaOV3; Homo sapiens, Caov-3, 72 h, CaOV3, 3-day incubation, read-out: Cell Count GI50) was 9.68 nM. The IC50 (CaOV3; Homo sapiens, Caov-3, 72 h, CaOV3, 3-day incubation, read-out: Cell Count IC50) was greater than 1000 nM, the “Cell Count Activity Area” value (DMS114; DMS114, scale 0-10) was 4.35 and the “Relative cell count (%) Mean” value (DMS114; 1.00E+00 microM) was 39.3%. The “Relative cell count (%) Mean” value (DMS114; 1.00E−01 microM) was 44.1%, the “Relative cell count (%) Mean” value (DMS114; 1.00E−02 microM) was 50.7% and the “Relative cell count (%) Mean” value (DMS114; 1.00E−03 microM) was 57.7%. The “Relative cell count (%) Mean” value (DMS114; 1.01E−04 microM) was 77.8%, the “Relative cell count (%) Mean” value (DMS114; 3.16E−01 microM) was 41.4% and the “Relative cell count (%) Mean” value (DMS114; 3.17E−02 microM) was 44.7%. For the same compound, the “Relative cell count (%) Mean” value (DMS114; 3.17E−03 microM) was 51.7%, the “Relative cell count (%) Mean” value (DMS114; 3.18E−04 microM) was 67.2% and the “Relative cell count (%) Mean” value (DMS114; 3.18E−05 microM) was 90.1%. It also gave an EC50 (DMS114; Homo sapiens, DMS-114, 72 h, DMS114, 3-day incubation, read-out: Cell Count EC50) of 0.251 nM, a GI50 (DMS114; Homo sapiens, DMS-114, 72 h, DMS114, 3-day incubation, read-out: Cell Count GI50) of 0.0822 nM and an IC50 (DMS114; Homo sapiens, DMS-114, 72 h, DMS114, 3-day incubation, read-out: Cell Count IC50) of 4.4 nM.
